Measurements reported in US12533425B2, “Methods and systems using peptides for targeting and mapping human nerves in image guided surgery, diagnostics and therapeutic delivery” (ALUME BIOSCIENCES, INC., priority 2019, dated 2026).
Entries after “also recorded” stand apart in the source; their conditions may differ. Blank lines part the entries; values can stand above or below the compound they belong to. Residues, ends and D or L forms follow the SMILES beside them. No end group written: not given here. *: point of attachment. Fluorescein(5-Mal) = O=C1OC2(c3ccc(O)cc3Oc3cc(O)ccc32)c2ccc(N3C(=O)CC(*)C3=O)cc21

Tests used:
[1] = Fluorescent plate reader assay of quenching of FAM-NP41 fluorescence by food dyes
From the text: (§1) FIGS. 21A-21C: Food dyes efficiently quench FAM-NP41 bladder fluorescence. A fluorescent plate reader assay was used to show dose dependent quenching of FAM-NP41 fluorescence. Erythrosine extra bluish (Santa Cruz Biotechnology, Inc.) was the most efficient quencher with >˜80% quenching at 2.5 times dye to fluorescein ratio and >95% quenching at 5× dye to fluorescein ratio (A). Other food dyes tested included Allura Red and Sunset Yellow. To test for quenching in-vivo we administered, by direct iv injection, 50 mg/kg MW 879.76 (˜1.5 μmoles per 25 gm mouse) to mice that had been injected with 150 nmoles of FAM-NP41 2 hours prior. This represents approximately a 10× dye to FAM-NP41 dose. Some bladder fluorescence remained after imaging so additional dye (30 μl, 10 mM Erythrosin extra bluish) was injected directly into the bladder. […] Dye would likely not be needed if this method was used for human patients as bladder catheterization in patients could be started as FAM-NP41 is administered so bladder fluorescence could be washed out.

bladder fluorescence = test: In-vivo quenching of FAM-NP41 bladder fluorescence; design: species or system mouse; details: 50 mg/kg i.v. plus 30 μl 10 mM intra bladder, 150 nmoles FAM-NP41 2 hours prior
From the text: as §1

human sural nerve = test: Topical application of FAM-labelled peptides on sections of human sural nerve and temporalis muscle; type: binding; details: for normalized average signal intensity for nerve binding: normalized to parent FAM-HNP401, topical 100 μM, human sural nerve sections; for effect of truncation on binding and solubility: deletion from C terminus of HNP401; for nerve binding and nerve to muscle contrast (words): human nerve and temporalis muscle sections
From the text: To determine the affinity of phage selected peptides for binding to human nerve they were chemically synthesized by solid-phase synthesis and labeled with fluorescein at the C-terminus via a GGC linker. Peptides were topically applied to sectioned human sural nerve and human temporalis muscle to determine nerve to muscle contrast. […] To confirm binding and contrast of HNP401 for additional nerve types binding was compared in nerve and muscle with both HNP401 and NP41 on facial brachial plexus nerve (FIG. 9). […] FAM-HNP401 was additionally tested topically on ex-vivo tissue for labeling of mouse facial nerve with surrounding muscle (FIG. 10, J-M).
To test the affinity of selected phage display peptides for binding to human nerves, they were chemically synthesized by solid-phase synthesis and labeled with fluorescein at the C-terminus. Peptides were topically applied to sections of surgically harvested human sural nerve and temporalis muscle to determine nerve to muscle contrast for selected peptides and controls (FIG. 23). […] To quantify differential binding to nerve versus muscle, fluorescence signal intensity was measured for ROIs from the perineurium of select nerves and human temporalis muscle.
To enhance and attempt to determine the core binding domain of HNP401, systematic deletion of two amino acids from the C or N terminus was performed (see, for example, FIG. 30) followed by binding analysis on human sural nerve sections (FIG. 20). In each case nerve binding and signal intensity was normalized to the parent FAM-HNP401 peptide (FIG. 20J).
Image J was used to analyze and compare images acquired using the confocal microscope and the Lumar dissecting scope. For each experimental set where probes were compared, we kept the acquisition parameters identical so as to directly compare the data obtained. […] All raw image files for a given experimental cohort were loaded at the same time into Image J as 16-bit tiff images. We then levelled the image for tissue treated with FAM-HNP401. Once these levels were set, the settings are propagated to all images in one step using Image J. The brightest image is set as the benchmark for all other images in the cohort to avoid saturating when the leveling is propagated.

[2] = test system: rat prostate cavernosal nerve; test: In-vivo labelling of rat prostate and sciatic nerve; details: i.v., FAM-labelled peptide
Method: FIG. 6: Fluorescent labeling of rat prostate cavernosal nerve in live rats.
Either 150 or 450 nmoles nmoles of fluorescein labeled synthetic peptides were injected intravenously into mice. After a 2 hour waiting period for washout of nonspecific binding, mice were anesthetized and skin incisions were made over the dorsal surface of the hind legs to expose the sciatic nerve. Brightfield and fluorescent images were obtained with a dissecting microscope using Metamorph software (FIG. 1). Quantitation of fluorescence of nerves and adjacent non-nerve tissue was performed with Image J (FIG. 2). Peptides were also topically applied to human nerve sections. […]
Following anesthesia with intra-peritoneal injection of ketamine (80 mg/kg) and midazolam (40 mg/kg), FAM-NP41 or its variants were administered into mice retro-orbitally. […] The autonomic nerve along the cavernosal vessel in the prostate was imaged and recorded using a custom-made surgical imaging system. This system is a modified from Olympus MVX10 scope capable of hi-resolution fluorescence, RGB reflectance and realtime overlay with zoom from 0.6 to 5.7 cm field of view. ImageJ was used for quantitative analysis of nerve contrast for each peptide dye conjugate tested. Images of autonomic nerve in prostate were selected from the recorded files and magnified 300-400% prior to selection of ROI and measurement. […]

sciatic nerve = test: In-vivo fluorescence imaging of sciatic nerve in mice after i.v. injection of FAM-labelled peptides; design: species or system mouse; details: 450 nmols i.v.
Method: In-vivo fluorescence image of sciatic nerve of 6 month old SKH1-Elite mice injected i.v. with 450 nmols of FAM-HNP401 (A) or FAM-NP41 (B) and imaged on the Lumar imaging scope 2 h post injection. […] Each mouse was injected i.v. with 100 nmol of FAM-HNP401 prior to blood collection at 1 min, 10 min, 20 min, 30 min, 1 h and 2 h timepoints (H).
In-vivo fluorescence image of sciatic nerves from 6 month old SKH1 mice that had been previously intravenously injected with 450 nmols of FAM-HNP401 [˜48.4 mg/kg] (A) or FAM-NP41 [˜39 mg/kg] (B). […] Each mouse was injected intravenous with 100 nmol [˜11 mg/kg] of FAM-HNP401 prior to blood collection at 1 min, 10 min, 20 min, 30 min, 1 h and 2 h time points.

[3] = Stability of peptides in ex-vivo human plasma (LC-MS); details: 37° C., 5 min vs 2 hours
Method: FIGS. 28A-28F: Stability of peptides in ex-vivo human plasma and cerebrospinal fluid from rats. […] An equal volume of 1:1 acetonitrile:water with 2% acetic acid is added to precipitate the protein matter, supernatant is extracted for analysis by LC-MS on a C18 reverse phase column with gradient of 9:1 H2O+0.05% TFA:Acetonitrile+0.05% TFA to 1:9 H2O+0.05% TFA:Acetonitrile+0.05% TFA in 20 min.
The bladder was drained with a syringe and sutured to avoid spillage and contamination around prostate. […] Stability of FAM-HNP401 in human plasma at 5 minutes and 2 hours was determined by incubation of peptide dye conjugate in human serum prior to analysis by mass spectrometry.

[4] = test system: autonomic nerves isolated from human prostate glands; test: Topical application on sections of nerves from human prostate gland; type: binding; details: topical 100 μM, 10 μm sections, two patients
Method: FAM-HNP401 and FAM-NP41 were then tested topically for binding to autonomic nerves, isolated from excised prostate glands of two human patients (FIGS. 12 and 13). […] Labelled fiber were confirmed as nerve using anti-neurofilament antibody SMI312 (red) and DAPI (blue) to show nuclear labeling (FIG. 12C). H&E staining was also done to confirm label tissue as nerve (FIG. 12D). Similar staining was obtained for peripheral sensory anti-brachial cutaneous nerve isolated from a human arm (FIG. 12E-H).
FAM-HNP401 and FAM-NP41 were tested for binding to autonomic nerves, isolated from the prostate glands of two human patients (FIGS. 19 and 29). […] Quantitation was not done because only 2 patient samples were available for testing as nerve resection during radical prostatectomy is only performed in instances of gross capsular invasion. Labelled fibers were confirmed as nerve using anti-neurofilament antibody SMI312 (red) with DAPI (blue) to show nuclear labeling (FIG. 19C). H&E staining also confirmed label tissue as nerve by histology (FIG. 19D). […] Similar staining using FAM-HNP401 was obtained for another sensory nerve (anti-brachial cutaneous) isolated from human arm showing the broad nerve binding activity of HNP401 (FIGS. 19E-H).

mouse facial nerve = test: Topical application on ex-vivo mouse facial nerve with surrounding muscle; type: binding; details: topical 375 and 100 μM, ex-vivo tissue
[5] = Mass spectroscopy analysis of urine after injection of nerve binding peptides
[6] = test system: human laryngeal nerve sections; test: Dose response of FAM-HNP401 by topical application on human nerve sections, confocal; details: low concentration (10 μM)
Method: Determination of optimal dose response by topical application of FAM-HNP401 on human laryngeal nerve sections at final concentration of 375 μM (A), 100 μM (B), 50 μM (C), 10 μM (D) and 1 μM (E), imaged with confocal microscopy with identical parameters and levelled equally for comparison. **brightened 2 fold for viewing.
Dose response data set of FAM-HNP401 on human nerve tissue (FIGS. 25:A-E) was acquired with 488 nm laser line, 10 μm sections on glass at 10× magnification, 0.45 NA air objective lens. Gain set to 40, power set to 3% of laser power, pixel dwell value of 1.2 μs, aperture size of 1.1 μm and a pixel size of 0.3 μm/px with a 2 k by 2 k size image.
Human peripheral nerves (typically sural) were obtained from patients undergoing nerve resection procedures. Human nerves from prostate gland of two patients were acquired under Moores Cancer Centre Biorepository IRB protocol number 090401. Tissue were sectioned and mounted on glass slides or Cryojane tape. Tissue sections were placed in a humidifier chamber for 30 min before application of the peptide solution. Peptides were diluted to appropriate concentration in 0.5×HBSS prior to topical application. 50 μl of peptide solution of with known concentration (1 μM to 375 μM) were applied to 10 μm nerve sections on tape or slides and incubated for 30 minutes in a humidifier chamber. After incubation with peptide nerve sections were washed with twice with 0.5×HBSS and once with 1×PBS. A cover-slip was applied and slides were imaged immediately on either a Zeiss Lumar dissecting scope of Nikon A1 confocal microscope. For confocal imaging tissue sections of 10 μm thickness were imaged with 488 nm laser excitation 515 (25) and a 10× air objective and a 0.26 µm/pixel size.

Compound: O=C1OC2(c3ccccc31)c1cc(I)c(O)c(I)c1Oc1c2cc(I)c(O)c1I [Erythrosine extra bluish]
quenching of FAM-NP41 fluorescence ([1]; 2.5 times dye to fluorescein ratio): > 80%
quenching of FAM-NP41 fluorescence ([1]; 5× dye to fluorescein ratio): > 95%
bladder fluorescence after quencher (bladder fluorescence): near background level

normalized average signal intensity for nerve binding (human sural nerve): 0.56±0.18
Compound: Ac-PWEEPYYVVKKSSGGC [HNP401-N-4, with GGC linker, tested FAM labelled]

normalized average signal intensity for nerve binding (human sural nerve): 0.98±0.31
Compound: Ac-PYYVVKKSSGGC [HNP401-N-8, with GGC linker, tested FAM labelled]

Compound: Ac-SGQVPWEEPYYVVKKGGC [HNP401-C-2, with GGC linker, tested FAM labelled]
effect of truncation on binding and solubility (human sural nerve): tolerated

normalized average signal intensity for nerve binding (human sural nerve): 1.0±0.34
Compound: Ac-EEPYYVVKKSSGGC [HNP401-N-6, with GGC linker, tested FAM labelled]

Compound: SEFPRSWDMETN [HNP301]
fluorescent labeling of rat prostate and sciatic nerve in live rats [2]: not showing as much contrast

Compound: Ac-QVPWEEPYYVVKKSSGGC [HNP401-N-2, with GGC linker, tested FAM labelled]
normalized nerve to temporalis muscle contrast, increase with respect to FAM-HNP401 (human sural nerve; human sural nerve vs temporalis muscle): 3 fold
normalized average signal intensity for nerve binding (human sural nerve): 2.02±0.65
average signal intensity, nerve binding of deletion variants (human sural nerve; topical 100 uM FAM labelled, human nerve sections, n=5): 1498.73 (+/−517.63)

nerve binding and nerve to muscle contrast (words) (human sural nerve; topical 100 μM): only weak non-specific binding
nerve binding and nerve to muscle contrast (words) (human sural nerve; topical 100 μM, listed as Carboxyfluorescein): low signal and non-specific binding
Compound: carboxyfluorescein [reference compound]

Compound: CC(=O)N[C@@H](CO)C(=O)NCC(=O)N[C@@H](CCC(N)=O)C(=O)N[C@H](C(=O)N1CCC[C@H]1C(=O)N[C@@H](Cc1c[nH]c2ccccc12)C(=O)N[C@@H](CCC(=O)O)C(=O)N[C@@H](CCC(=O)O)C(=O)N1CCC[C@H]1C(=O)N[C@@H](Cc1ccc(O)cc1)C(=O)N[C@@H](Cc1ccc(O)cc1)C(=O)N[C@H](C(=O)N[C@H](C(=O)N[C@@H](CCCCN)C(=O)N[C@@H](CCCCN)C(=O)N[C@@H](CO)C(=O)N[C@@H](CO)C(=O)NCC(=O)NCC(=O)N[C@@H](CSC1CC(=O)N(c2ccc3c(c2)C(=O)OC32c3ccc(O)cc3Oc3cc(O)ccc32)C1=O)C(N)=O)C(C)C)C(C)C)C(C)C (stereo partly shown) [FAM-HNP401] (Ac-SGQVPWEEPYYVVKKSSGGC(Fluorescein(5-Mal))-NH2)
nerve to surrounding muscle contrast (sciatic nerve; imaged 2 h post injection, SKH1 mice): 5.79±0.81
increase in sciatic nerve fluorescence intensity compared to NP41 (sciatic nerve; mice): 2.3 fold
signal intensity for in-vivo binding to mouse sciatic nerve compared to FAM-NP41 (sciatic nerve; mice): 2.3 ×
nerve to muscle contrast (human sural nerve; human sural nerve vs temporalis muscle, topical 100 μM, n=4): 3.03±0.57
fluorescent signal intensity of perineurium (human sural nerve; topical 100 μM, 10 μm unfixed sections, confocal, n=4): 1374.44±425.96
nerve binding and nerve to muscle contrast (words) (human sural nerve; topical 100 μM): highest contrast
fluorescent signal intensity compared to FAM-NP41 (human sural nerve; topical 100 μM, human sural nerve): 10.9 ×
signal for binding human nerve compared to FAM-NP41 (human sural nerve; topical, human nerve): 10 fold
stability in human plasma [3]: remain intact; also recorded: stable
fluorescent signal in human autonomic (cavernosal) nerves compared to FAM-NP41 [4]: significantly higher fluorescent signal
labeling of mouse facial nerve versus surrounding muscle (mouse facial nerve): poor contrast; also recorded: did not perform as well as FAM-NP41
fluorescent labeling of rat prostate and sciatic nerve in live rats [2]: highlighted
metabolism of peptide detected in urine [5]: partially metabolized
structures of nerve bound (confocal imaging) [6]: binding of peptide to non-axonal structural components of nerve; also recorded: excluded from axons
structures of nerve bound (confocal imaging) ([6]; listed as FAM-HMP401): does not bind axons, but preferentially binds the perineurium
structures of nerve bound (confocal imaging) ([6]; listed as HNP401-FAM): binds epineurium, perineurium and endonerium but not axons

Compound: Ac-SGQVPWEEPYYVVGGC [HNP401-C-4, with GGC linker, tested FAM labelled]
effect of truncation on binding and solubility (human sural nerve): reduced dramatically
normalized average signal intensity for nerve binding (human sural nerve): 0.49±0.11
